Experimental findings from patent US12275731B2, “Azaindole inhibitors of wild-type and mutant forms of LRRK2” (DANA-FARBER CANCER INSTITUTE, INC., priority 2018, dated 2025) are described below.

What all share (assay): KinomeScan profiling
Assay type in all cases: binding

In one assay the target is T1, RIPK5 (Homo sapiens, UniProt Q6XUX3).
T1 sequence (Q6XUX3 1-929): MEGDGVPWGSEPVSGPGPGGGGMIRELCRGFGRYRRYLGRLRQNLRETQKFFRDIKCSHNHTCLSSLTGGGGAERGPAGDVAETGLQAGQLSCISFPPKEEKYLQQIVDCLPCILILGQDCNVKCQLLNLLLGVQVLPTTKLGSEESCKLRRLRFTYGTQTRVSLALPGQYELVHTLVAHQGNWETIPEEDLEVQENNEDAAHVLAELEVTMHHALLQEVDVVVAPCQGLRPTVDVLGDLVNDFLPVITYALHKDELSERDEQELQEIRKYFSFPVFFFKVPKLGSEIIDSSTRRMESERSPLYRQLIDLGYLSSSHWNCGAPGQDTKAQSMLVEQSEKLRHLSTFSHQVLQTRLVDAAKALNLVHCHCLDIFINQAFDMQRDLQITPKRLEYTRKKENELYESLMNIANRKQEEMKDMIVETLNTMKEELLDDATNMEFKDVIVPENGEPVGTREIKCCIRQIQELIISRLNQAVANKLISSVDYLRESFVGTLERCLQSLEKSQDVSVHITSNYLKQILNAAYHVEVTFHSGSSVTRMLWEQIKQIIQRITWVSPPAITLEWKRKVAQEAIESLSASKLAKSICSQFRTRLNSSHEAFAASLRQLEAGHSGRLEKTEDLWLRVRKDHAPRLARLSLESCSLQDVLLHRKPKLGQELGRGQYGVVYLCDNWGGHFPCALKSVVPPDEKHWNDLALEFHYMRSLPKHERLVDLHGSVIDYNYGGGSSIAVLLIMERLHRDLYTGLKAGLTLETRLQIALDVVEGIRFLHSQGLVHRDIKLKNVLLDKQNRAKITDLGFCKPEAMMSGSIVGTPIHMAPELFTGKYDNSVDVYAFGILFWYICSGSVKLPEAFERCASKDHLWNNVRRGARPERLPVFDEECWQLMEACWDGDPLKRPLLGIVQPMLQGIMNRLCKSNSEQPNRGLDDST
The following applies: RIPK5, 1 μM; read-out: % control. In outline: (§1)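 Single-point competition binding screen: 1 μM, DMSO, 468 kinases. Results reported as % control from RLU, normalised to DMSO and positive-control wells. Activity threshold: <35% control.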

The next assay concerns the target PIK3C2B (Homo sapiens, UniProt O00750). The following applies: read-out: % control. In outline: as §1
The target in a further assay is MLK1 (Homo sapiens, UniProt P80192). The following applies: MLK1, 1 μM; read-out: % control. The method, boiled down: as §1
MLK1, sequence (P80192 whole entry): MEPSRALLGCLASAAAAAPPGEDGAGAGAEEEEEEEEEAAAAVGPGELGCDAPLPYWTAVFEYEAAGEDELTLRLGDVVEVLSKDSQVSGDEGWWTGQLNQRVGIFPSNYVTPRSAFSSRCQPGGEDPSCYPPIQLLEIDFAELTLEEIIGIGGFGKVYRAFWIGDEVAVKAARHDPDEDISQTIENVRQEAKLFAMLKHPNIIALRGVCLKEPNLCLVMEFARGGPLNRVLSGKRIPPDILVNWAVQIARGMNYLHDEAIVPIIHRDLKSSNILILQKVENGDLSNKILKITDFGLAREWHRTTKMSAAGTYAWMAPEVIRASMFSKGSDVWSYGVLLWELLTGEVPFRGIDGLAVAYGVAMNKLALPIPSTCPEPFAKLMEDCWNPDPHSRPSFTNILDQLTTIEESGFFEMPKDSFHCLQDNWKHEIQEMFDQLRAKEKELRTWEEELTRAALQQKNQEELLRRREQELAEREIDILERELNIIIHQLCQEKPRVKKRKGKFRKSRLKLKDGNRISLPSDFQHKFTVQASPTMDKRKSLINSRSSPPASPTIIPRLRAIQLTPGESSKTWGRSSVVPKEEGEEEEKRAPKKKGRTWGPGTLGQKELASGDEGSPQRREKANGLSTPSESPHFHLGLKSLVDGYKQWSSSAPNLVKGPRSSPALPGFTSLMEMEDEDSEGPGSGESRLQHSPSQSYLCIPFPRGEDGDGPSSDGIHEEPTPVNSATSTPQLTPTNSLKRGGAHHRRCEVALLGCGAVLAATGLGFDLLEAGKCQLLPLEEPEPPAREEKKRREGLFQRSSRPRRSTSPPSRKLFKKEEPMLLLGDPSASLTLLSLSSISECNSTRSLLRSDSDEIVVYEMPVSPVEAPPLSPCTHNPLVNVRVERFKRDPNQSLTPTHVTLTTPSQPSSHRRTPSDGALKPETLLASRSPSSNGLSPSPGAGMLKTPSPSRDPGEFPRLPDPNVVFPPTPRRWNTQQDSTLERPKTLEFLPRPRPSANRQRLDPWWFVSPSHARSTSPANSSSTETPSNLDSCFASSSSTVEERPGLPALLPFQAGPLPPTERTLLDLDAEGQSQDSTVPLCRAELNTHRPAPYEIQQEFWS
The next assay has as its target TESK1 (Homo sapiens, UniProt Q15569). The following applies: TESK1, 1 μM; read-out: % control. In outline:
as §1

For a further assay, the target named is PCTK3 (Homo sapiens, UniProt Q07002). The following applies: PCTK3, 1 μM; read-out: % control. The method, boiled down: as §1
PCTK3, sequence (Q07002 whole entry): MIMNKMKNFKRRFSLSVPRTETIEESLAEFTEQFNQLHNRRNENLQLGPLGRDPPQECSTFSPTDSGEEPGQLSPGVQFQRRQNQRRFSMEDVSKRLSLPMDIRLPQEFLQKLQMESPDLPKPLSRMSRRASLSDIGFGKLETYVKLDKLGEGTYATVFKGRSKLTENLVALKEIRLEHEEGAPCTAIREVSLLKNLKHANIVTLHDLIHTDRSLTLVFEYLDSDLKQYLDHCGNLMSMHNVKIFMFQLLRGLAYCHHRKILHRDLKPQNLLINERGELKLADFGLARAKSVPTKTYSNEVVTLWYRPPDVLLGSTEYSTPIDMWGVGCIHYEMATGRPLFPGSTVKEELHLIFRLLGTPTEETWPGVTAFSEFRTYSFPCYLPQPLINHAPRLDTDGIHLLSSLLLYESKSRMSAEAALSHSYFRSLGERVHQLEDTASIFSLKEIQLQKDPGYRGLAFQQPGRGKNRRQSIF
Assay [1] has as its target T2, ABL1(H396P)-nonphosphorylated (Homo sapiens, UniProt P00519, H396P).
T2 construct: purchased KinomeScan®
The following applies: read-out: % control. The method, boiled down:
as §1

The next assay has as its target T3, DRAK1 (Homo sapiens, UniProt Q9UEE5).
T3 sequence (Q9UEE5 1-414): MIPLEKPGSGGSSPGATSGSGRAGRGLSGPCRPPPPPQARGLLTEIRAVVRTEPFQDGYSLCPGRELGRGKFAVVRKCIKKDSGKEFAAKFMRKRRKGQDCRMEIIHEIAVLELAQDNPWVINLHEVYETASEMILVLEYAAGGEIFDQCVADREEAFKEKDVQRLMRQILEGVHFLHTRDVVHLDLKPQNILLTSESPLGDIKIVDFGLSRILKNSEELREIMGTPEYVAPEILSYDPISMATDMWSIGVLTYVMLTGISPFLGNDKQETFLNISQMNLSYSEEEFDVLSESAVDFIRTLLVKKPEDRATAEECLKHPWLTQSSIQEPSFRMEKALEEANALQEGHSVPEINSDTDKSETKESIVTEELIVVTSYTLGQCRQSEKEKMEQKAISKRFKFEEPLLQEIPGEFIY
The following applies: DRAK1, 1 μM; read-out: % control. In outline:
as §1

In another assay the target is EGFR(L747-T751del, Sins) (Homo sapiens, UniProt P00533, DEL747-750/T751S). The following applies: read-out: % control. In outline:
as §1

The next assay has as its target T4, PRKCE (Homo sapiens, UniProt Q02156).
T4 sequence (Q02156 1-737): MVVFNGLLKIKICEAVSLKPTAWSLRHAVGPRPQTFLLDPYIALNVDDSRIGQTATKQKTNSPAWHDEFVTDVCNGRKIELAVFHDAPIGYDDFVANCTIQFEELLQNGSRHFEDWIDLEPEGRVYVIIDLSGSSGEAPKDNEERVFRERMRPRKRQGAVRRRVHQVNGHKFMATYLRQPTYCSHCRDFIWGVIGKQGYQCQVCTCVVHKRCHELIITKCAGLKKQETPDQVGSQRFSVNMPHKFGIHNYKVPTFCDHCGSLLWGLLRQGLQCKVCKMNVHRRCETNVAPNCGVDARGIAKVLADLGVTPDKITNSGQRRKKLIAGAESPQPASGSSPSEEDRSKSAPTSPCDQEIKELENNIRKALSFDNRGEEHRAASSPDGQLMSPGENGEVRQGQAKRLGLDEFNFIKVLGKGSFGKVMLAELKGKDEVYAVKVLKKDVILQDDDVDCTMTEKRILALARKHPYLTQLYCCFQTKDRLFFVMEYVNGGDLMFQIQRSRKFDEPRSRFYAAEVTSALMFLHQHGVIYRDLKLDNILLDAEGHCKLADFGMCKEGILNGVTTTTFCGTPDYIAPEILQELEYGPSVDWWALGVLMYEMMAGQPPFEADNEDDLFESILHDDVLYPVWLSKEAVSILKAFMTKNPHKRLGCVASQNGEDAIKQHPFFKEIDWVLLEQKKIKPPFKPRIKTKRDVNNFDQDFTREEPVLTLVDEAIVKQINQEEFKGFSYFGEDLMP
The following applies: read-out: % control. The method, boiled down:
as §1

The target of assay [2] is T5, RPS6KA5(Kin.Dom.1-N-terminal) (Homo sapiens, UniProt O75582).
T5 construct: RPS6KA5(Kin.Dom.1-N-terminal)
T5 sequence (O75582 49-318 limits assumed): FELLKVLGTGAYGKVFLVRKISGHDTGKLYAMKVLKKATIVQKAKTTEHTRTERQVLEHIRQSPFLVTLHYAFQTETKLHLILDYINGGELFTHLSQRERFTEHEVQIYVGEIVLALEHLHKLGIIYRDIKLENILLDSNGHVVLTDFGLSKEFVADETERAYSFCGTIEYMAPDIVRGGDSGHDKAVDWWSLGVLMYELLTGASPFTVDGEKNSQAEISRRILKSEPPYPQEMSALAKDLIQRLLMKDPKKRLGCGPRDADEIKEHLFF
The following applies: read-out: % control. The method, boiled down: as §1

The structures appear in SMILES notation.

PIK3C2B, sequence (O00750 whole entry): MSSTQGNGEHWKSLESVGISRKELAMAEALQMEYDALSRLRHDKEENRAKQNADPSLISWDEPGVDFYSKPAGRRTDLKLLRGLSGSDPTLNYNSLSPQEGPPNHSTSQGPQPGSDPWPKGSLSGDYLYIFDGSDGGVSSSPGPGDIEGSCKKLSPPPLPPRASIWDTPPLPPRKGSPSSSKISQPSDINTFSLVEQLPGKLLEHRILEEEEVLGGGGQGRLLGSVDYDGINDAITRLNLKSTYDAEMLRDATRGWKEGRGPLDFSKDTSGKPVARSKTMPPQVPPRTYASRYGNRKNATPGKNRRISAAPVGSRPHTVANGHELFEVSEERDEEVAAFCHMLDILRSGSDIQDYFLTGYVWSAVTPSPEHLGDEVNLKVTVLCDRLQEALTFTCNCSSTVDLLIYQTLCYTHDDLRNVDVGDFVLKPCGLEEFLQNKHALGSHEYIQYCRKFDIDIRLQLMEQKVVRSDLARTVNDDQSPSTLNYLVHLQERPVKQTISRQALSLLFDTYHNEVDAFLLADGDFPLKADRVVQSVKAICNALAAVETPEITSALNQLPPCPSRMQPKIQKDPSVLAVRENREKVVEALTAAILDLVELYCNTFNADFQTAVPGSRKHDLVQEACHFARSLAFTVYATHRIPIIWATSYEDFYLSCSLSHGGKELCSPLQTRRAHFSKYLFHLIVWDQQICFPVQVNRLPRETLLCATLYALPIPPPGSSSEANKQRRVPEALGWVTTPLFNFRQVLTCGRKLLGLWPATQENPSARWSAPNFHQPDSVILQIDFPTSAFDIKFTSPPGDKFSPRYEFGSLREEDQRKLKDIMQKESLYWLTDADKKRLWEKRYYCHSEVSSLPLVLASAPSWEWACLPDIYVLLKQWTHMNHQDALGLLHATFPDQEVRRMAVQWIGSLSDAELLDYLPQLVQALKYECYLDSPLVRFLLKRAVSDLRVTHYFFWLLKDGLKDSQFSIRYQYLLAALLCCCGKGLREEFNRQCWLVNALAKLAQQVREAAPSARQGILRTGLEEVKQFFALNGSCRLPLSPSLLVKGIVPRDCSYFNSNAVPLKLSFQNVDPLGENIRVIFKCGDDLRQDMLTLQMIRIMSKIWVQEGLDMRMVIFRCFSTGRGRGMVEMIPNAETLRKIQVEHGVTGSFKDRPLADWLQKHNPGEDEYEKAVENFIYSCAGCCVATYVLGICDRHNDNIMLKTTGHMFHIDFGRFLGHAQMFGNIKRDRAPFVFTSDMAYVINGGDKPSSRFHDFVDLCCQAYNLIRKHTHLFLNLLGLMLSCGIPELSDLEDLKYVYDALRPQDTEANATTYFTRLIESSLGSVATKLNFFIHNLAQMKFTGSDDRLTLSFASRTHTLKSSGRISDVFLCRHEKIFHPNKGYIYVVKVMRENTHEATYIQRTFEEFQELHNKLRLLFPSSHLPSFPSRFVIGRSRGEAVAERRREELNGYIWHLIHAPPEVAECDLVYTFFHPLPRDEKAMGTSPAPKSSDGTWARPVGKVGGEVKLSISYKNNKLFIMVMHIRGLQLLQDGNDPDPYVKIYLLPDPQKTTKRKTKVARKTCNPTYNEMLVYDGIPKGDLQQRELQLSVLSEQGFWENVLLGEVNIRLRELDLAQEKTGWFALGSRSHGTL
EGFR(L747-T751del, Sins), sequence (P00533 with tags, fused parts or gaps DEL747-750/T751S limits assumed): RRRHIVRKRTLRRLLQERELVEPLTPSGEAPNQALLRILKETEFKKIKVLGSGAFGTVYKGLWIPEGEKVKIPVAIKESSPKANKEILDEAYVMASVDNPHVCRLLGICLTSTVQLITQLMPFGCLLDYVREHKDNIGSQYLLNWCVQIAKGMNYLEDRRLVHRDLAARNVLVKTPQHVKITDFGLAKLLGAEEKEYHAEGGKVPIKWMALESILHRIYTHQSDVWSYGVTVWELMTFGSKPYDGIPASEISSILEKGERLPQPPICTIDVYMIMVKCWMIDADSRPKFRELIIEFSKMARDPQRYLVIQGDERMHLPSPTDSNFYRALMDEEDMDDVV
TESK1, sequence (Q15569 whole entry): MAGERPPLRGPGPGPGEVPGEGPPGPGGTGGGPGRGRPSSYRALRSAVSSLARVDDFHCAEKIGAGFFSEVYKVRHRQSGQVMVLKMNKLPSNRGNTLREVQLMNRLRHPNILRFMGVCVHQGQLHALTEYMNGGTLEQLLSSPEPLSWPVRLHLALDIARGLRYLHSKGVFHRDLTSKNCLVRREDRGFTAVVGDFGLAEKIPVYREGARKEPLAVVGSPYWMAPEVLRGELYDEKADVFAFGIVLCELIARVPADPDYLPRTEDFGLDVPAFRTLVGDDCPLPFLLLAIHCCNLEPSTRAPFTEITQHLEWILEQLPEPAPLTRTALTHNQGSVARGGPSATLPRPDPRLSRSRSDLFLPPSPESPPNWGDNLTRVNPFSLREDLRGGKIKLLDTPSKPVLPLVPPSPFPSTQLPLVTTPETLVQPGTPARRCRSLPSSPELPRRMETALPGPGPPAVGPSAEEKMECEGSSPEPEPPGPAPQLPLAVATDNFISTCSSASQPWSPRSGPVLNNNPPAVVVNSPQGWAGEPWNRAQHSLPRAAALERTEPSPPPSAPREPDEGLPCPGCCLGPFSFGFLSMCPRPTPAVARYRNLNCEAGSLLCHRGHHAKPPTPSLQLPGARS

As to `CNc1c(-c2ccc(C(=O)N3CCC(N4CCOCC4)CC3)cc2)cnc2[nH]cc(Cl)c12` [Compound 96, (4-(3-chloro-4-(methylamino)-1H-pyrrolo[2,3-b]pyridin-5-yl)phenyl)(4-morpholinopiperidin-1-yl)methanone], the remaining binding at 1 µM at RIPK5 was 8.6%; on PIK3C2B, 96%; on MLK1, 96%; on TESK1 it was 74%; at PCTK3, 100%; in assay [1] it was 76%. Further, the remaining binding at 1 µM on DRAK1 stood at 56%; on EGFR(L747-T751del, Sins), 76%; at PRKCE, 66%; in [2] it was 100%.

In the case of `O=C(c1ccc(-c2cnc3[nH]cc(Cl)c3c2NC2CCCC2)cc1)N1CCC(N2CCOCC2)CC1` [Compound 101, (4-(3-chloro-4-(cyclopentylamino)-1H-pyrrolo[2,3-b]pyridin-5-yl)phenyl)(4-morpholinopiperidin-1-yl)methanone], the remaining binding at 1 µM on RIPK5 stood at 50%; at PIK3C2B, 96%; at MLK1 it was 96%; on TESK1 it was 99%; on PCTK3, 96%; in assay [1] it was 100%. The remaining binding at 1 µM came to 100% on DRAK1; 100% on EGFR(L747-T751del, Sins); 70% on PRKCE; 90% in assay [2].

For the compound `CNc1c(-c2cnn([C@H]3CCN(C(C)=O)C[C@@H]3F)c2)cnc2[nH]cc(Cl)c12` [Compound 77, 1-((3S,4S)-4-(4-(3-chloro-4-(methylamino)-1H-pyrrolo[2,3-b]pyridin-5-yl)-1H-pyrazol-1-yl)-3-fluoropiperidin-1-yl)ethan-1-one], the remaining binding at 1 µM was determined as 31% at RIPK5; 100% at PIK3C2B; 91% on MLK1; 89% at TESK1; 100% on PCTK3; 36% in assay [1]. The remaining binding at 1 µM on DRAK1 came to 81%; at EGFR(L747-T751del, Sins), 88%; on PRKCE, 51%; in assay [2], 100%.
